Data: ChEMBL document CHEMBL5579805, “Synthesis, antibacterial activity, and 3D-QASR studies of matrine-indole derivatives as potential antibiotics” (2024)
≈ marks a conversion by molar mass, not a printed value.

How the values were obtained:
Format in all cases: functional
Staphylococcus aureus = assay: Antibacterial activity against Staphylococcus aureus by two-fold dilution method; settings: for MIC: Staphylococcus aureus
Escherichia coli = assay: Antibacterial activity against Escherichia coli by two-fold dilution method
Candida albicans = assay: […] activity against Candida albicans by two-fold dilution method; settings: for MIC: Candida albicans
Cutibacterium acnes = assay: Antibacterial activity against Propionibacterium acnes by two-fold dilution method
Pseudomonas aeruginosa = assay: Antibacterial activity against Pseudomonas aeruginosa by two-fold dilution method

| SMILES | -logMIC (Staphylococcus aureus) | MIC (Staphylococcus aureus) [µg/mL] | MIC (Escherichia coli) [µg/mL] | -logMIC (Candida albicans) | MIC (Candida albicans) [µg/mL] | MIC (Cutibacterium acnes) [µg/mL] | MIC (Pseudomonas aeruginosa) [µg/mL] |
| --- | --- | --- | --- | --- | --- | --- | --- |
| COC(=O)CCC[C@@H]1[C@H]2CCCN3CCC[C@@H](CN1C(=O)c1cc4ccc(Cl)cc4n1Cc1ccc(F)cc1)[C@@H]23 | 0.035 | 0.923 (≈ 1.63 µM) | 0.618 (≈ 1.09 µM) | -0.77 | 5.89 (≈ 10.4 µM) | 0.199 (≈ 0.352 µM) | 0.806 (≈ 1.42 µM) |
| CC(C)(O/N=C(\C(=O)N[C@@H]1C(=O)N2C(C(=O)[O-])=C(C[n+]3ccccc3)CS[C@H]12)c1csc(N)n1)C(=O)O [CEFTAZIDIME] |  |  |  |  |  |  | 0.042 (≈ 0.0768 µM) |
| COC(=O)CCC[C@@H]1[C@H]2CCCN3CCC[C@@H](CN1C(=O)c1cc4ccc(Cl)cc4n1Cc1ccc4ccccc4c1)[C@@H]23 | 1.187 | 0.065 (≈ 0.109 µM) | 0.892 (≈ 1.49 µM) | -1.09 | 12.2 (≈ 20.4 µM) | 0.175 (≈ 0.293 µM) | 0.42 (≈ 0.702 µM) |
| COC(=O)CCC[C@@H]1[C@H]2CCCN3CCC[C@@H](CN1C(=O)c1cc4ccc(Cl)cc4n1Cc1cc(OC)ccc1Br)[C@@H]23 | 0.111 | 0.774 (≈ 1.18 µM) | 0.933 (≈ 1.42 µM) | -0.997 | 9.92 (≈ 15.1 µM) | 0.175 (≈ 0.266 µM) | 0.323 (≈ 0.492 µM) |
| COC(=O)CCC[C@@H]1[C@H]2CCCN3CCC[C@@H](CN1C(=O)c1cc4ccc(Cl)cc4n1Cc1ccc(F)c(F)c1)[C@@H]23 | 0.37 | 0.427 (≈ 0.731 µM) | 0.483 (≈ 0.827 µM) | -0.98 | 9.55 (≈ 16.3 µM) | 0.12 (≈ 0.205 µM) | 0.5 (≈ 0.856 µM) |
| COC(=O)CCC[C@@H]1[C@H]2CCCN3CCC[C@@H](CN1C(=O)c1cc4ccc(Cl)cc4n1Cc1cccc([N+](=O)[O-])c1)[C@@H]23 | 1.509 | 0.031 (≈ 0.0523 µM) | 0.954 (≈ 1.61 µM) | -1.07 | 11.7 (≈ 19.7 µM) | 0.248 (≈ 0.418 µM) | 0.387 (≈ 0.652 µM) |
| NC[C@H]1O[C@H](O[C@H]2[C@H](O)[C@@H](O[C@H]3O[C@H](CO)[C@@H](O)[C@H](N)[C@H]3O)[C@H](N)C[C@@H]2N)[C@H](O)[C@@H](O)[C@@H]1O.O=S(=O)(O)O [KANAMYCIN SULFATE] |  |  | 0.052 |  |  |  |  |
| COC(=O)CCC[C@@H]1[C@H]2CCCN3CCC[C@@H](CN1C(=O)c1cc4ccc(Cl)cc4n1Cc1ccc([N+](=O)[O-])cc1)[C@@H]23 | 0.745 | 0.18 (≈ 0.303 µM) | 0.523 (≈ 0.882 µM) | -0.846 | 7.01 (≈ 11.8 µM) | 0.053 (≈ 0.0894 µM) | 0.28 (≈ 0.472 µM) |
| COC(=O)CCC[C@@H]1[C@H]2CCCN3CCC[C@@H](CN1C(=O)c1cc4ccc(Cl)cc4n1Cc1cc(C#N)ccc1F)[C@@H]23 | 0.587 | 3.86 (≈ 6.54 µM) | 0.644 (≈ 1.09 µM) | -1.02 | 10.6 (≈ 17.9 µM) | 0.2 (≈ 0.338 µM) | 0.658 (≈ 1.11 µM) |
| COC(=O)CCC[C@@H]1[C@H]2CCCN3CCC[C@@H](CN1C(=O)c1cc4ccc(Cl)cc4n1Cc1ccc(C(F)(F)F)cc1)[C@@H]23 | 1.678 | 0.021 (≈ 0.0341 µM) | 0.379 (≈ 0.615 µM) | -0.448 | 2.81 (≈ 4.55 µM) | 0.03 (≈ 0.0487 µM) | 0.092 (≈ 0.149 µM) |
| COC(=O)CCC[C@@H]1[C@H]2CCCN3CCC[C@@H](CN1C(=O)c1cc4ccc(Cl)cc4n1Cc1ccc(-c4ccccc4)cc1)[C@@H]23 | 1.276 | 0.053 (≈ 0.0849 µM) | 1.16 (≈ 1.86 µM) | -1.37 | 23.2 (≈ 37.2 µM) | 0.373 (≈ 0.598 µM) | 0.55 (≈ 0.881 µM) |
| COC(=O)CCC[C@@H]1[C@H]2CCCN3CCC[C@@H](CN1C(=O)c1cc4ccc(Cl)cc4n1Cc1ccc(C(C)(C)C)cc1)[C@@H]23 | 1.071 | 0.085 (≈ 0.141 µM) | 1.22 (≈ 2.02 µM) | -1.26 | 18.1 (≈ 29.9 µM) | 1.33 (≈ 2.19 µM) | 0.654 (≈ 1.08 µM) |
| O=C1CCC[C@@H]2[C@H]3CCCN4CCC[C@@H](CN12)[C@@H]34 [MATRINE] |  | 7.43 (≈ 29.9 µM) | 5.46 (≈ 22 µM) |  | 8 (≈ 32.2 µM) | 16 (≈ 64.3 µM) | 6.73 (≈ 27.1 µM) |
| COC(=O)CCC[C@@H]1[C@H]2CCCN3CCC[C@@H](CN1C(=O)c1cc4ccc(Cl)cc4n1Cc1ccc(Cl)cc1)[C@@H]23 | 0.73 | 0.186 (≈ 0.319 µM) | 0.812 (≈ 1.39 µM) | -1.13 | 13.5 (≈ 23.1 µM) | 0.246 (≈ 0.422 µM) | 0.633 (≈ 1.09 µM) |
| COC(=O)CCC[C@@H]1[C@H]2CCCN3CCC[C@@H](CN1C(=O)c1cc4ccc(Cl)cc4n1Cc1ccc(OC)cc1)[C@@H]23 | 0.451 | 0.354 (≈ 0.612 µM) | 0.775 (≈ 1.34 µM) | -0.905 | 8.04 (≈ 13.9 µM) | 0.404 (≈ 0.699 µM) | 0.627 (≈ 1.08 µM) |
| CC1(C)S[C@@H]2[C@H](NC(=O)Cc3ccccc3)C(=O)N2[C@H]1C(=O)[O-].[Na+] [PENICILLIN G SODIUM] |  | 0.037 |  |  |  |  |  |
| COC(=O)CCC[C@@H]1[C@H]2CCCN3CCC[C@@H](CN1C(=O)c1cc4ccc(Cl)cc4n1Cc1ccccc1)[C@@H]23 | 0.283 | 0.521 (≈ 0.951 µM) | 1.23 (≈ 2.25 µM) | -0.951 | 8.94 (≈ 16.3 µM) | 0.478 (≈ 0.872 µM) | 0.844 (≈ 1.54 µM) |

| SMILES | -logMIC (Staphylococcus aureus) | MIC (Staphylococcus aureus) [µg/mL] | MIC (Escherichia coli) [µg/mL] | -logMIC (Candida albicans) | MIC (Candida albicans) [µg/mL] | MIC (Cutibacterium acnes) [µg/mL] | MIC (Pseudomonas aeruginosa) [µg/mL] |
| --- | --- | --- | --- | --- | --- | --- | --- |
| COC(=O)CCC[C@@H]1[C@H]2CCCN3CCC[C@@H](CN1C(=O)c1cc4ccc(Cl)cc4n1Cc1ccccc1C)[C@@H]23 | 1.201 | 0.063 (≈ 0.112 µM) | 1.1 (≈ 1.97 µM) | -1.29 | 19.6 (≈ 34.8 µM) | 0.271 (≈ 0.482 µM) | 0.72 (≈ 1.28 µM) |
| COC(=O)CCC[C@@H]1[C@H]2CCCN3CCC[C@@H](CN1C(=O)c1cc4ccc(Cl)cc4n1Cc1c(Cl)cccc1Cl)[C@@H]23 | 0.785 | 0.164 (≈ 0.266 µM) | 0.82 (≈ 1.33 µM) | -0.833 | 6.81 (≈ 11 µM) | 0.203 (≈ 0.329 µM) | 0.207 (≈ 0.335 µM) |
| COC(=O)CCC[C@@H]1[C@H]2CCCN3CCC[C@@H](CN1C(=O)c1cc4ccc(Cl)cc4n1Cc1ccc(F)cc1Br)[C@@H]23 | 0.458 | 0.348 (≈ 0.54 µM) | 1.04 (≈ 1.62 µM) | -0.942 | 8.74 (≈ 13.6 µM) | 0.351 (≈ 0.544 µM) | 0.445 (≈ 0.69 µM) |
| COC(=O)CCC[C@@H]1[C@H]2CCCN3CCC[C@@H](CN1C(=O)c1cc4ccc(Cl)cc4n1Cc1cccc(C)c1)[C@@H]23 | 0.567 | 0.271 (≈ 0.482 µM) | 1.3 (≈ 2.31 µM) | -1.06 | 11.6 (≈ 20.6 µM) | 0.305 (≈ 0.543 µM) | 0.536 (≈ 0.953 µM) |
| COC(=O)CCC[C@@H]1[C@H]2CCCN3CCC[C@@H](CN1C(=O)c1cc4ccc(Cl)cc4n1Cc1cccc(C(F)(F)F)c1)[C@@H]23 | 0.866 | 0.136 (≈ 0.221 µM) | 0.559 (≈ 0.907 µM) | -0.655 | 4.52 (≈ 7.33 µM) | 0.058 (≈ 0.0941 µM) | 0.234 (≈ 0.38 µM) |
| COC(=O)CCC[C@@H]1[C@H]2CCCN3CCC[C@@H](CN1C(=O)c1cc4ccc(Cl)cc4n1Cc1cc(C(C)(C)C)cc(C(C)(C)C)c1)[C@@H]23 | 1.032 | 0.093 (≈ 0.141 µM) | 1.49 (≈ 2.25 µM) | -0.955 | 9.02 (≈ 13.7 µM) | 0.29 (≈ 0.439 µM) | 0.466 (≈ 0.706 µM) |
| COC(=O)CCC[C@@H]1[C@H]2CCCN3CCC[C@@H](CN1C(=O)c1cc4ccc(Cl)cc4n1Cc1ccccc1C#N)[C@@H]23 | 0.319 | 0.48 (≈ 0.837 µM) | 0.823 (≈ 1.44 µM) | -1.05 | 11.2 (≈ 19.6 µM) | 0.848 (≈ 1.48 µM) | 0.693 (≈ 1.21 µM) |
| COC(=O)CCC[C@@H]1[C@H]2CCCN3CCC[C@@H](CN1C(=O)c1cc4ccc(Cl)cc4[nH]1)[C@@H]23 | 0.207 | 1.61 (≈ 3.52 µM) | 2.55 (≈ 5.57 µM) | -0.819 | 6.59 (≈ 14.4 µM) | 0.636 (≈ 1.39 µM) | 0.661 (≈ 1.44 µM) |
| COC(=O)CCC[C@@H]1[C@H]2CCCN3CCC[C@@H](CN1C(=O)c1cc4ccc(Cl)cc4n1Cc1cc(Cl)ccc1F)[C@@H]23 | 1.013 | 0.097 (≈ 0.162 µM) | 0.848 (≈ 1.41 µM) | -0.739 | 5.48 (≈ 9.12 µM) | 0.084 (≈ 0.14 µM) | 0.5 (≈ 0.833 µM) |
| COC(=O)CCC[C@@H]1[C@H]2CCCN3CCC[C@@H](CN1C(=O)c1cc4ccc(Cl)cc4n1Cc1ccc(Br)cc1)[C@@H]23 | 0.06 | 1.15 (≈ 1.83 µM) | 0.762 (≈ 1.22 µM) | -1.14 | 13.7 (≈ 21.9 µM) | 0.121 (≈ 0.193 µM) | 0.467 (≈ 0.745 µM) |
| COC(=O)CCC[C@@H]1[C@H]2CCCN3CCC[C@@H](CN1C(=O)c1cc4ccccc4[nH]1)[C@@H]23 | -0.991 | 9.79 (≈ 23.1 µM) | 2.97 (≈ 7.01 µM) | -1.16 | 14.3 (≈ 33.7 µM) | 1.23 (≈ 2.91 µM) | 1.08 (≈ 2.56 µM) |
| COC(=O)CCC[C@@H]1[C@H]2CCCN3CCC[C@@H](CN1C(=O)c1cc4ccc(Cl)cc4n1Cc1ccccc1[N+](=O)[O-])[C@@H]23 | 0.876 | 0.133 (≈ 0.224 µM) | 0.694 (≈ 1.17 µM) | -1.05 | 11.1 (≈ 18.8 µM) | 2.86 (≈ 4.82 µM) | 0.852 (≈ 1.44 µM) |
| COC(=O)CCC[C@@H]1[C@H]2CCCN3CCC[C@@H](CN1C(=O)c1cc4ccc(Cl)cc4n1Cc1ccc(C)cc1)[C@@H]23 | 0.221 | 1.66 (≈ 2.96 µM) | 1.09 (≈ 1.93 µM) | -0.907 | 8.08 (≈ 14.4 µM) | 0.508 (≈ 0.904 µM) | 0.773 (≈ 1.38 µM) |
| COC(=O)CCC[C@@H]1[C@H]2CCCN3CCC[C@@H](CN1C(=O)c1cc4ccc(Cl)cc4n1Cc1cccc4ccccc14)[C@@H]23 | 0.519 | 0.303 (≈ 0.507 µM) | 0.649 (≈ 1.08 µM) | -1.08 | 12.1 (≈ 20.2 µM) | 0.14 (≈ 0.234 µM) | 0.534 (≈ 0.893 µM) |
| C[C@H]1c2cccc(O)c2C(=O)C2=C(O)[C@]3(O)C(=O)C(C(N)=O)=C(O)[C@@H](N(C)C)[C@@H]3[C@@H](O)[C@@H]21.Cl [DOXYCYCLINE HYDROCHLORIDE] |  |  |  |  |  | 0.023 |  |
| OC(Cn1cncn1)(Cn1cncn1)c1ccc(F)cc1F [FLUCONAZOLE] |  |  |  |  | 4.85 (≈ 15.8 µM) |  |  |
